“And” between values parts separate entries of the source, which are not always exact repeats. Equal entries are not always repeated. Inconclusive results and toxic doses are left out.

The test system of the assay is CD2F1 mice, L1210 leukemia ip, survival T/C. Kind of assay: NCI In Vivo Anticancer Drug Screen. Data for tumor model L1210 Leukemia (intraperitoneal) in CD2F1 (CDF1) mice. To be noted: higher = longer survival. In a few lines: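 Read-out first: treated-group measurement over vehicle-control measurement, expressed as a ratio. Animals bore a transplanted tumor line and were dosed with compound or vehicle.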

Setting [1] is: endpoint: mean survival time, dose: 100.0 mg/kg/injection, schedule: Q01DX009 (ip), vehicle: saline with Tween-80.
The mark [2] stands for this setting: endpoint: mean survival time, dose: 200.0 mg/kg/injection, schedule: Q01DX009 (ip), vehicle: saline with Tween-80.
Where [3] appears, read: endpoint: mean survival time, dose: 400.0 mg/kg/injection, schedule: Q01DX009 (ip), vehicle: saline with Tween-80.
Where [4] appears, read: endpoint: mean survival time, dose: 100.0 mg/kg/injection, schedule: Q01DX009 (ip), vehicle: saline.
Setting [5] is: endpoint: mean survival time, dose: 200.0 mg/kg/injection, schedule: Q01DX009 (ip), vehicle: saline.
The mark [6] stands for this setting: endpoint: mean survival time, dose: 100.0 mg/kg/injection, schedule: Q01DX001 (ip), vehicle: saline.
The mark [7] stands for this setting: endpoint: mean survival time, dose: 100.0 mg/kg/injection, schedule: Q04DX003 (ip), vehicle: saline with Tween-80.
Where [8] appears, read: endpoint: mean survival time, dose: 200.0 mg/kg/injection, schedule: Q04DX003 (ip), vehicle: saline with Tween-80.
[9] abbreviates: endpoint: mean survival time, dose: 400.0 mg/kg/injection, schedule: Q04DX003 (ip), vehicle: saline with Tween-80.

In the case of `CO[C@H](/C(C)=C/C=C/C(C)=C/c1coc(C)n1)[C@H](C)[C@H]1C[C@@H](O)[C@@]2(C)O[C@H]2/C=C/[C@@H](C)[C@@H]2C[C@@H](CC(=O)O2)C[C@H]2O[C@@H]2C(=O)O1`, the T/C is 112 % of control (endpoint: median survival time, dose: 0.5 mg/kg/injection, schedule: Q01DX009 (ip), vehicle: Klucel (hydroxypropylcellulose) (HPC)); 114 % of control (endpoint: median survival time, dose: 20.0 micrograms/kg/injection, schedule: Q01DX009 (ip), vehicle: Klucel (hydroxypropylcellulose) (HPC)); 123 % of control and 104 % of control (endpoint: median survival time, dose: 40.0 micrograms/kg/injection, schedule: Q01DX009 (ip), vehicle: Klucel (hydroxypropylcellulose) (HPC)); 116 % of control (endpoint: median survival time, dose: 80.0 micrograms/kg/injection, schedule: Q01DX009 (ip), vehicle: Klucel (hydroxypropylcellulose) (HPC)); 114 % of control (endpoint: median survival time, dose: 160.0 micrograms/kg/injection, schedule: Q01DX009 (ip), vehicle: Klucel (hydroxypropylcellulose) (HPC)).
Turning to `CN(C)CCNc1ccc(NCCN(C)C)c2c1C(=O)c1ccccc1C2=O`, the T/C reads like this: (endpoint: mean survival time, dose: 3.75 mg/kg/injection, schedule: Q01DX009 (ip), vehicle: saline with Tween-80) 104 % of control; (endpoint: mean survival time, dose: 7.5 mg/kg/injection, schedule: Q01DX009 (ip), vehicle: saline with Tween-80) 107 % of control; (endpoint: mean survival time, dose: 15.0 mg/kg/injection, schedule: Q01DX009 (ip), vehicle: saline with Tween-80) 117 % of control; (endpoint: mean survival time, dose: 30.0 mg/kg/injection, schedule: Q01DX009 (ip), vehicle: saline with Tween-80) 150 % of control; (endpoint: mean survival time, dose: 60.0 mg/kg/injection, schedule: Q01DX009 (ip), vehicle: saline with Tween-80) 100 % of control.
As to `CCCCCCC(C)(O)CCCCCC`, the T/C was 93 % of control (endpoint: mean survival time, dose: 100.0 mg/kg/injection, schedule: Q01DX001 (ip), vehicle: saline with Tween-80); 96 % of control (endpoint: mean survival time, dose: 200.0 mg/kg/injection, schedule: Q01DX001 (ip), vehicle: saline with Tween-80); 101 % of control (endpoint: mean survival time, dose: 400.0 mg/kg/injection, schedule: Q01DX001 (ip), vehicle: saline with Tween-80).
On to `O=C(OCc1ccccc1)OC1C2COC(O2)C(OC(=O)OCc2ccccc2)C1O` (stereo not drawn), for which the T/C runs as follows: under setting [1], 95 % of control; under setting [2], 95 % of control; under setting [3], 89 % of control.
In the case of `COC(=O)Nc1cccc(OC(=O)N(C)C)c1`, the T/C is 97 % of control under setting [1], 97 % of control under setting [2] and 96 % of control under setting [3].
Regarding `N/C(=N\c1nc(N)cc(=O)[nH]1)Nc1ccc(S(N)(=O)=O)cc1`, the T/C under setting [4] was 96 % of control; the T/C under setting [5] is 95 % of control; the T/C (endpoint: mean survival time, dose: 400.0 mg/kg/injection, schedule: Q01DX009 (ip), vehicle: saline) is 95 % of control.
Take `O=C1c2c(O)ccc(Cl)c2C(=O)c2c(O)ccc(Cl)c21`: the T/C was 95 % of control under setting [1], 93 % of control under setting [2] and 97 % of control under setting [3].
With `CCOC(=O)/C(C#N)=N\O`, the T/C under setting [6] was 102 % of control.
Take `COC(=O)N1c2ccc(C)cc2C=CC1C#N` (stereo not drawn): the T/C under setting [1] was 95 % of control; the T/C under setting [7] was 102 % of control; the T/C under setting [2] was 100 % of control; the T/C under setting [8] is 105 % of control; the T/C under setting [3] was 95 % of control; the T/C under setting [9] was 90 % of control.
As for `CCOC(=O)C(Cc1ccccc1)C1=NC(C)(C)CC(C)O1` (stereo not drawn), the T/C reads like this: (endpoint: mean survival time, dose: 100.0 mg/kg/injection, schedule: Q04DX003 (ip), vehicle: acetone) 102 % of control; (endpoint: mean survival time, dose: 200.0 mg/kg/injection, schedule: Q04DX003 (ip), vehicle: acetone) 109 % of control; (endpoint: mean survival time, dose: 400.0 mg/kg/injection, schedule: Q04DX003 (ip), vehicle: acetone) 97 % of control.
Take `Cc1ccc(S(=O)(=O)OC2CCCCC2c2ccc(C(F)(F)F)cc2)cc1` (stereo not drawn): the T/C (endpoint: mean survival time, dose: 75.0 mg/kg/injection, schedule: Q01DX001 (ip), vehicle: other) was 96 % of control; the T/C (endpoint: mean survival time, dose: 150.0 mg/kg/injection, schedule: Q01DX001 (ip), vehicle: other) was 88 % of control; the T/C (endpoint: mean survival time, dose: 300.0 mg/kg/injection, schedule: Q01DX001 (ip), vehicle: other) is 88 % of control.
As for `O=Nc1ccc(NO)c2ccccc12`, the T/C by setting is: (endpoint: mean survival time, dose: 50.0 mg/kg/injection, schedule: Q01DX009 (ip), vehicle: saline) 98 % of control; under setting [4], 102 % of control; under setting [5], 102 % of control.
Take `N#CC(OC1OC(COC2OC(CO)C(O)C(O)C2O)C(O)C(O)C1O)c1ccccc1` (stereo not drawn): the T/C was 94 % of control (endpoint: mean survival time, dose: 12.5 mg/kg/injection, schedule: Q01DX009 (ip), vehicle: water); 88 % of control and 104 % of control (endpoint: mean survival time, dose: 25.0 mg/kg/injection, schedule: Q01DX009 (ip), vehicle: water); 98 % of control and 102 % of control (endpoint: mean survival time, dose: 50.0 mg/kg/injection, schedule: Q01DX009 (ip), vehicle: water); 94 % of control and 96 % of control (endpoint: mean survival time, dose: 100.0 mg/kg/injection, schedule: Q01DX009 (ip), vehicle: water); 91 % of control and 102 % of control (endpoint: mean survival time, dose: 200.0 mg/kg/injection, schedule: Q01DX009 (ip), vehicle: water); 95 % of control and 97 % of control (endpoint: mean survival time, dose: 400.0 mg/kg/injection, schedule: Q01DX009 (ip), vehicle: water). The T/C (endpoint: mean survival time, dose: 800.0 mg/kg/injection, schedule: Q01DX009 (ip), vehicle: water) was 93 % of control and 100 % of control.
`Cc1ccc2c(c1)CCCN2C(=O)c1ccccc1`: the T/C runs as follows: (endpoint: mean survival time, dose: 100.0 mg/kg/injection, schedule: Q04DX003 (ip), vehicle: other) 89 % of control; (endpoint: mean survival time, dose: 200.0 mg/kg/injection, schedule: Q04DX003 (ip), vehicle: other) 92 % of control; (endpoint: mean survival time, dose: 400.0 mg/kg/injection, schedule: Q04DX003 (ip), vehicle: other) 94 % of control.
As for `O/N=C(/c1ccccc1)c1ccc(O)cc1`, the T/C reads like this: (endpoint: median survival time, dose: 25.0 mg/kg/injection, schedule: Q01DX001 (ip), vehicle: saline with Tween-80) 104 % of control; (endpoint: median survival time, dose: 50.0 mg/kg/injection, schedule: Q01DX001 (ip), vehicle: saline with Tween-80) 101 % of control; (endpoint: median survival time, dose: 100.0 mg/kg/injection, schedule: Q01DX001 (ip), vehicle: saline with Tween-80) 98 % of control; (endpoint: median survival time, dose: 200.0 mg/kg/injection, schedule: Q01DX001 (ip), vehicle: saline with Tween-80) 104 % of control; (endpoint: median survival time, dose: 400.0 mg/kg/injection, schedule: Q01DX001 (ip), vehicle: saline with Tween-80) 101 % of control.
As for `C[n+]1ccccc1C#N`, the T/C was 102 % of control (endpoint: mean survival time, dose: 25.0 mg/kg/injection, schedule: Q01DX009 (ip), vehicle: saline sonified); 102 % of control (endpoint: mean survival time, dose: 50.0 mg/kg/injection, schedule: Q01DX009 (ip), vehicle: saline sonified); 95 % of control under setting [7].
As to `Nc1ncnc2c1ncn2C1OC2COP(=O)(O)OC2C1OCc1ccccc1` (stereo not drawn), the T/C is 103 % of control (endpoint: mean survival time, dose: 100.0 mg/kg/injection, schedule: Q01DX005 (ip), vehicle: saline) and 94 % of control (endpoint: mean survival time, dose: 200.0 mg/kg/injection, schedule: Q01DX005 (ip), vehicle: saline).
As for `CCOC(=O)CC(=O)c1c(C)cc(C)c(Br)c1C`, the T/C runs as follows: under setting [8], 97 % of control; under setting [9], 92 % of control.
As to `CC(=O)OCC1CCCN1C(C)=O` (stereo not drawn), the T/C was 97 % of control under setting [6]; 97 % of control (endpoint: mean survival time, dose: 200.0 mg/kg/injection, schedule: Q01DX001 (ip), vehicle: saline); 97 % of control (endpoint: mean survival time, dose: 400.0 mg/kg/injection, schedule: Q01DX001 (ip), vehicle: saline).
Consider `CNC(=O)OCc1c(COC(=O)NC)c(-c2ccc(Cl)c(Cl)c2)n2c1Cc1ccccc1C2`, for which the T/C runs as follows: (endpoint: median survival time, dose: 12.5 mg/kg/injection, schedule: Q01DX009 (ip), vehicle: distilled water + Tween-80) 122 % of control; (endpoint: median survival time, dose: 25.0 mg/kg/injection, schedule: Q01DX009 (ip), vehicle: distilled water + Tween-80) 122 % of control; (endpoint: median survival time, dose: 50.0 mg/kg/injection, schedule: Q01DX009 (ip), vehicle: distilled water + Tween-80) 157 % of control; (endpoint: median survival time, dose: 100.0 mg/kg/injection, schedule: Q01DX009 (ip), vehicle: distilled water + Tween-80) 164 % of control and 173 % of control; (endpoint: median survival time, dose: 200.0 mg/kg/injection, schedule: Q01DX009 (ip), vehicle: distilled water + Tween-80) 124 % of control.
For `CC(C)CCCC(C)C1CCC2C3CC(CO)C4CC(O)CCC4(C)C3CCC12C` (stereo not drawn), the T/C is, setting by setting: under setting [7], 87 % of control; under setting [8], 88 % of control.

(Values after PubChem BioAssay AID256 (DTP/NCI, 2004).)
